# Reference: patent publication US20250154135A1, “M-CHOLINE RECEPTOR AGONIST COMPOUND, PREPARATION METHOD THEREFOR AND USE THEREOF” (NANJING GRITPHARMA CO., LTD., priority 2022, published 2025)
# Several values for one entry are separate records, joined by “and”; a condition that tells them apart may be missing. Equal entries are not always repeated.
# Key:
# rabbit eyes = test: Irritation to rabbit eyes (Test Example 3); type: in vivo; settings: 0.88% compared with 3.50%
# From the text: Irritation: examined concurrently with the pupil diameter.
# The numerical results of pupil changes are shown in Tables 3-1 to 3-4, and the changes in eye irritation phenomenon are shown in FIGS. 13 and 14.
# rabbit pupil = test: Rabbit pupil diameter change, pilocarpine p-toluate at different concentrations (Test Example 3); type: in vivo
# Procedure: Under the condition of normal saline, the onset time, strength of effect, duration of effect, and irritation of 1.25% pilocarpine hydrochloride and different concentrations (0.88%, 1.75%, 3.50%) of pilocarpine p-toluate were tested.
# Each rabbit was subjected to eye drop administration in the left eye (using a pipette), with an administration volume of 100 μL.
# Number of animals: 6 rabbits per compound.
# Administration schedule: single administration.
# • the pupil diameter of the left eye of the rabbits was measured at time points of −0.5 h (i.e., half an hour before administration), 5 min, 10 min, 15 min, 0.5 h, 3 h and 4 h relative to administration, with the measurement performed 3 times for each rabbit at each time point.
smiles,measurement,setting,value
"CC[C@@H]1C(=O)OC[C@@H]1Cc1cncn1C [JQ-6, Pilocarpine p-toluate]",irritation to rabbit eyes,rabbit eyes,significantly lower than that caused by the 3.50% pilocarpine p-toluate
same,strength of effect at each time point compared to 1.25% pilocarpine hydrochloride,rabbit pupil; 0.88% (half molar concentration of pilocarpine),demonstrated increased strength of effect at each time point
same,Percentage change in pupil diameter,"rabbit pupil; 0.88%, 5 min, average of 6 rabbits",−10.07%
same,Percentage change in pupil diameter,"rabbit pupil; 0.88%, 5 min, individual rabbit",−4.80% and −6.70% and −13.54% and −9.41% and −12.03% and −13.93%
same,Percentage change in pupil diameter,"rabbit pupil; 0.88%, 10 min, average of 6 rabbits",−36.21%
same,Percentage change in pupil diameter,"rabbit pupil; 0.88%, 10 min, individual rabbit",−33.75% and −34.62% and −30.54% and −48.90% and −41.07% and −28.39%
same,Percentage change in pupil diameter,"rabbit pupil; 0.88%, 15 min, average of 6 rabbits",−40.86%
same,Percentage change in pupil diameter,"rabbit pupil; 0.88%, 15 min, individual rabbit",−43.40% and −41.17% and −36.73% and −43.68% and −50.07% and −30.13%
same,Percentage change in pupil diameter,"rabbit pupil; 0.88%, 0.5 h, average of 6 rabbits",−37.44%
same,Percentage change in pupil diameter,"rabbit pupil; 0.88%, 0.5 h, individual rabbit",−36.60% and −41.12% and −36.25% and −37.28% and −44.65% and −28.71%
same,Percentage change in pupil diameter,"rabbit pupil; 0.88%, 3 h, average of 6 rabbits",−10.34%
same,Percentage change in pupil diameter,"rabbit pupil; 0.88%, 3 h, individual rabbit",−9.65% and −14.66% and −12.43% and −7.91% and −14.57% and −2.85%
same,Percentage change in pupil diameter,"rabbit pupil; 0.88%, 4 h, average of 6 rabbits",0.70%
same,Percentage change in pupil diameter,"rabbit pupil; 0.88%, 4 h, individual rabbit",3.67% and −2.65% and 4.83% and −0.54% and −1.39% and 0.26%
same,strength of effect at each time point compared to 1.25% pilocarpine hydrochloride,rabbit pupil; 1.75% (same molar concentration of pilocarpine),the increase in strength of effect at each time point was more significant
same,Percentage change in pupil diameter,"rabbit pupil; 1.75%, 5 min, individual rabbit",−18.36% and −12.49% and −14.04%
same,Percentage change in pupil diameter,"rabbit pupil; 1.75%, 10 min, individual rabbit",−44.23% and −37.19% and −44.10%
same,Percentage change in pupil diameter,"rabbit pupil; 1.75%, 15 min, individual rabbit",−49.50% and −43.41% and −45.41%
same,Percentage change in pupil diameter,"rabbit pupil; 1.75%, 0.5 h, individual rabbit",−47.81% and −42.82% and −44.78%
same,Percentage change in pupil diameter,"rabbit pupil; 1.75%, 3 h, individual rabbit",−12.34% and −6.91%
same,Percentage change in pupil diameter,"rabbit pupil; 1.75%, 4 h, individual rabbit",−0.45% and −0.05%
same,strength of effect at each time point compared to 1.25% pilocarpine hydrochloride,rabbit pupil; 3.50% (2 times molar concentration of pilocarpine),significantly enhanced
